According to patent US20020137929A1, “1 - (3-heterocyclylphenyl) isothiourea, -isourea, -guanidine and -amidine herbicidal agents” (Intellectual Property Department, BASF Aktiengesellschaft, priority 1998, published 2002):

Columns and labels:
[1] = system: ZEAMX (Corn, Field); assay: Postemergence herbicidal evaluation; assay type: in vivo, Zea mays; conditions: postemergence
Procedure, shortened: (§1)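 Compound is applied as a foliar spray to seedlings about two weeks old, formulated in equal parts acetone and water with 0.5% TWEEN 20 and delivered at 40 psi to give about 0.0156–0.500 kg per hectare. Injury is rated visually 0–9 after four to five weeks.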

[2] = system: IPOHE (Morningglory, Ivyleaf); assay: Preemergence herbicidal evaluation; assay type: in vivo, Ipomoea hederacea; conditions: rated 4-5 weeks after treatment
Text: (§2) Results of herbicide evaluation are expressed on a rating scale (0-9). The scale is based upon a visual observation of plant stand, vigor, malformation, size, chlorosis and overall plant appearance as compared with a control.
(§3) The preemergence herbicidal activity of the test compounds of the present invention is exemplified by the following tests in which the seeds of a variety of monocotyledonous and dicotyledonous plants are separately mixed with potting soil and planted on top of approximately one inch of soil in separate pint cups. After planting, the cups are sprayed with the selected aqueous acetone solution containing test compound in sufficient quantity to provide the equivalent of about 0.0156 to 0.500 kg per hectare of test compound per cup. The treated cups are then placed on greenhouse benches, watered and cared for in accordance with conventional greenhouse procedures. From four to five weeks after treatment, the tests are terminated and each cup is examined and rated according to the rating system provided in Example 37.
(§4) The compounds evaluated are reported by compound number given in Example 37.

[3] = system: ZEAMX (Corn, Field); assay: Preemergence herbicidal evaluation; assay type: in vivo, Zea mays; conditions: rated 4-5 weeks after treatment
Text: as §2, §3, §4

[4] = system: GALAP (Galium); assay: Postemergence herbicidal evaluation; assay type: in vivo, Galium aparine; conditions: postemergence
Procedure, shortened: as §1

[5] = system: CYPIR (Rice Flatsedge); assay: Preemergence weed control under flooded paddy conditions; assay type: in vivo, Cyperus iria; conditions: rated 3-4 weeks after treatment
Procedure, shortened: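 Seeds or propagules sown in top 0.5 cm of silt loam soil, flooded 1.5 to 3 cm above surface throughout. Compound in 50/50 v/v aqueous/acetone pipetted into flood water at about 0.0313 to 0.500 kg/ha. Visual 0-9 rating versus control after three to four weeks in greenhouse.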

[6] = system: AMBEL (Ragweed, Common); assay: Preemergence herbicidal evaluation; assay type: in vivo, Ambrosia artemisifolia; conditions: rated 4-5 weeks after treatment
Text: as §2, §3, §4

[7] = system: ECHORC (Watergrass (Calif.)); assay: Preemergence weed control under flooded paddy conditions; assay type: in vivo, Echinochloa oryzoides; conditions: rated 3-4 weeks after treatment
Procedure: as §2
Preemergence herbicidal activity under flooded paddy conditions is determined as follows: plant seeds or propagating organs are planted in the top 0.5 cm of silt loam soil in 32 oz. plastic containers with a diameter of 10.5 cm and no drainage holes. Water is added to these containers and maintained at 1.5 to 3 cm above the soil surface for the duration of the experiment. The test compounds are applied as aqueous/acetone mixtures 50/50 v/v pipetted directly into the flood water to give the equivalent of about 0.0313 to 0.500 kg/ha of active ingredient. The treated containers are placed on greenhouse benches and cared for in accordance with conventional greenhouse procedures. Three to four weeks after treatment, the test is terminated and each container is examined and herbicidal effect rated according to the rating system provided in Example 37. The compounds evaluated are reported by compound number given in Example 37.
Plant species employed in this example are reported by header abbreviation, common name and scientific name.

[8] = system: TRZAWR (Wheat, Winter, cv Riband); assay: Preemergence herbicidal evaluation; assay type: in vivo, Triticum aestivum; conditions: rated 4-5 weeks after treatment
Text: as §2, §3, §4

[9] = system: CHEAL (Lambsquarters, Common); assay: Preemergence herbicidal evaluation; assay type: in vivo, Chenopodium album; conditions: rated 4-5 weeks after treatment
Text: as §2, §3, §4

[10] = system: CASOB (Sicklepod); assay: Postemergence herbicidal evaluation; assay type: in vivo, Cassia obtusifolia; conditions: postemergence
Procedure: In the tests, seedling plants are grown in jiffy flats for about two weeks. The test compounds are dispersed in 50/50 acetone/water mixtures containing 0.5% TWEEN®20, a polyoxyethylene sorbitan monolaurate surfactant of Atlas Chemical Industries, in sufficient quantities to provide the equivalent of about 0.0156 kg to 0.500 kg per hectare of active compound when applied to the plants through a spray nozzle operating at 40 psi for a predetermined time. After spraying, the plants are placed on greenhouse benches and are cared for in accordance with conventional greenhouse procedures. From four to five weeks after treatment, the seedling plants are examined and rated according to the rating system set forth below. Where more than one test is involved for a given compound, the data are averaged.
Plant species employed in these evaluations are reported by header abbreviation, common name and scientific name.
as §2

[11] = system: ORYSAT (Rice, Tebonnet); assay: Preemergence herbicidal evaluation; assay type: in vivo, Oryza sativa, (L.) Tebonnet; conditions: rated 4-5 weeks after treatment
Text: as §2, §3, §4

## CCOC(=O)CN1C(=O)C(CC(=O)O)SC1=Nc1cc(N2C(=O)CC(C(F)(F)F)CC2=O)c(F)cc1Cl (stereo not shown) [Compound 170, 2-{{2-Chloro-5-[2,6-dioxo-4-(trifluoromethyl)-piperidino]-4-fluorophenyl}imino}-4-oxo-3,5-thiazolidinediacetic acid, 3-ethyl ester]
[1]; rate 0.0156 kg/ha
  Herbicidal rating ZEAMX: 5.0
[1]; rate 0.0313 kg/ha
  Herbicidal rating ZEAMX: 6.0
[1]; rate 0.0625 kg/ha
  Herbicidal rating ZEAMX: 6.0
[2]; 0.0156 kg/ha
  Preemergence herbicidal rating IPOHE: 3.0
[2]; 0.0313 kg/ha
  Preemergence herbicidal rating IPOHE: 7.0
[2]; 0.1250 kg/ha
  Preemergence herbicidal rating IPOHE: 7.0
[2]; 0.2500 kg/ha
  Preemergence herbicidal rating IPOHE: 9.0
[3]; 0.0156 kg/ha
  Preemergence herbicidal rating ZEAMX: 5.0
[3]; 0.0313 kg/ha
  Preemergence herbicidal rating ZEAMX: 7.0
[3]; 0.0625 kg/ha
  Preemergence herbicidal rating ZEAMX: 8.0
[3]; 0.1250 kg/ha
  Preemergence herbicidal rating ZEAMX: 9.0
[3]; 0.2500 kg/ha
  Preemergence herbicidal rating ZEAMX: 9.0
[4]; rate 0.0156 kg/ha
  Herbicidal rating GALAP: 0.0
[4]; rate 0.0313 kg/ha
  Herbicidal rating GALAP: 3.0
[4]; rate 0.0625 kg/ha
  Herbicidal rating GALAP: 4.0
[5]; 0.0313 kg/ha
  herbicidal effect rating, CYPIR: 9.0
[5]; 0.0625 kg/ha
  herbicidal effect rating, CYPIR: 9.0
[5]; 0.1250 kg/ha
  herbicidal effect rating, CYPIR: 9.0
[5]; 0.2500 kg/ha
  herbicidal effect rating, CYPIR: 9.0
[6]; 0.0156 kg/ha
  Preemergence herbicidal rating AMBEL: 0.0
[6]; 0.0313 kg/ha
  Preemergence herbicidal rating AMBEL: 0.0
[6]; 0.0625 kg/ha
  Preemergence herbicidal rating AMBEL: 4.0
[6]; 0.1250 kg/ha
  Preemergence herbicidal rating AMBEL: 9.0
[6]; 0.2500 kg/ha
  Preemergence herbicidal rating AMBEL: 9.0
[7]; 0.0313 kg/ha
  herbicidal effect rating, ECHORC: 9.0
[7]; 0.0625 kg/ha
  herbicidal effect rating, ECHORC: 9.0
[7]; 0.1250 kg/ha
  herbicidal effect rating, ECHORC: 9.0
[7]; 0.2500 kg/ha
  herbicidal effect rating, ECHORC: 9.0
[8]; 0.0156 kg/ha
  Preemergence herbicidal rating TRZAWR: 0.0
[8]; 0.0313 kg/ha
  Preemergence herbicidal rating TRZAWR: 6.0
[8]; 0.0625 kg/ha
  Preemergence herbicidal rating TRZAWR: 7.0
[8]; 0.1250 kg/ha
  Preemergence herbicidal rating TRZAWR: 8.0
[8]; 0.2500 kg/ha
  Preemergence herbicidal rating TRZAWR: 9.0
[9]; 0.0156 kg/ha
  Preemergence herbicidal rating CHEAL: 9.0
[9]; 0.0313 kg/ha
  Preemergence herbicidal rating CHEAL: 9.0
[9]; 0.0625 kg/ha
  Preemergence herbicidal rating CHEAL: 9.0
[9]; 0.1250 kg/ha
  Preemergence herbicidal rating CHEAL: 9.0
[9]; 0.2500 kg/ha
  Preemergence herbicidal rating CHEAL: 9.0
[10]; rate 0.0156 kg/ha
  Herbicidal rating CASOB: 0.0
[10]; rate 0.0313 kg/ha
  Herbicidal rating CASOB: 0.0
[10]; rate 0.0625 kg/ha
  Herbicidal rating CASOB: 1.0
[11]; 0.0156 kg/ha
  Preemergence herbicidal rating ORYSAT: 0.0
[11]; 0.0313 kg/ha
  Preemergence herbicidal rating ORYSAT: 0.0
[11]; 0.0625 kg/ha
  Preemergence herbicidal rating ORYSAT: 6.0
[11]; 0.1250 kg/ha
  Preemergence herbicidal rating ORYSAT: 7.0
[11]; 0.2500 kg/ha
  Preemergence herbicidal rating ORYSAT: 9.0
